PMC11134350, “Substrate Promiscuity of Thermoplasma acidophilum Malic Enzyme for CO2 Fixation Reaction” (JACS Au, 2024)
Like-named read-outs stand apart in the source and are kept apart here.

Test system: T1, TaME (Thermoplasma acidophilum NADP+-malic enzyme)
T1 construct: dimer (from structural model); Asn304 and Thr46* named at active site
Assay: NADPH formation, oxidative decarboxylation, Michaelis-Menten
Assay type: biochemical
Conditions: NADP+ as cofactor, standard assay conditions in supplement section 1.3.1, read-out: Km(substrate)
From the text: NADPH formation, oxidative decarboxylation, Michaelis-Menten on TaME (Thermoplasma acidophilum NADP+-malic enzyme)

| SMILES | Km (0.05-1.0 mM malate) [µM] | Km (0.03-0.60 mM isocitrate) [µM] |
| --- | --- | --- |
| O=C(O)C[C@H](O)C(=O)O [1b, Malate] | 879 ± 149 | – |
| O=C(O)C[C@H](C(=O)O)[C@@H](O)C(=O)O [2b, Isocitrate] | – | 23.7 ± 5.2 |
